From paper PMC9223397 (International Journal of Molecular Sciences, 2022)

Experiments:
Sig-1R/BiP interaction = assay: BiP/Sig-1R association assay in CHO cells; type: cell-based; conditions: for Effect on Sig-1R/BiP association: 10 µM
Protocol: The interaction between Sig-1R and the chaperone BiP was used to identify the functional nature (agonistic or antagonistic) of compounds [38]. The assay was conducted by Amylgen according to their standard assay protocol (https://www.amylgen.fr/ (accessed on 15 May 2022)). Each assay condition consisted of six determinations. In brief, CHO cells were treated with compounds at 37 °C for 30 min and lysed. CHO cell lysates were immunoprecipitated with Sig-1R antibody, and coimmunoprecipitated BiP was detected by ELISA assay. In each experiment, untreated control cell lysates were used to assess the maximal level of Sig1R-BiP interaction and represented 100% of Sig1R-BiP association. Cells treated with compounds at the corresponding concentrations were equally processed, and the level of Sig1R-BiP association in those conditions was referred to as the control condition. In this experimental setting, Sig1R agonists were able to reduce the Sig1R-BiP interaction, while antagonists were not.

[1] = system: spinal MNs after L4-L5 rhizotomy; assay: MN survival after L4-L5 rhizotomy (cresyl violet MN counts); type: in vivo, female mice (B6SJL); conditions: 0.25 mg/kg bid i.p., 42 dpi; positive control
Protocol: (§1) Surgeries were performed on three-month-old mice under anesthesia with ketamine-xylazine (100–10 mg/kg i.p.) as previously described. Briefly, the L4-L5 spinal roots were exposed by a small laminectomy on the right side. Afterwards, roots were cut at the exit from the intervertebral foramina, and the root stumps were separated. Mice were cared for until recovery in a warm environment. Analgesia was provided with buprenorphine (0.1 mg/kg) for the next 48 h post-surgery.
(§2) The compounds were dissolved in 0.5% hydroxypropyl-methylcellulose (HPMC; H7509, Sigma-Aldrich) in distilled water and were administered by intraperitoneal (i.p.) route twice daily (bid) in a volume of 10 mL/kg. Administrations were given from 30 min after rhizotomy surgery until 42 days post-injury (dpi), the end of the study; in the SOD1^G93A study, treatments were given from 8 to 16 weeks of age (see Figure 6).
(§3) At the end of follow-up (42 dpi for rhizotomy and 16 weeks of age for ALS mice; Figure 6), the animals were deeply anesthetized and transcardially perfused with 4% PFA in PBS. The lumbar spinal cord and the TA muscle were harvested and cryopreserved in 30% sucrose solution in PB. The spinal cords were serially cut in 20 µm thick transverse sections with a cryostat (Leica, Mannheim, Germany). For MN counting, L4-L5 spinal cord sections separated 100 µm were stained for 3 h with an acidified solution of 3.1 mM cresyl violet. MNs were identified by their localization in the lateral ventral horn of the spinal cord and were counted following strict size and morphological criteria: only MNs with a diameter larger than 20 µm, polygonal shape, and prominent nucleoli were counted.

[2] = molecular target: T1, human Sigma-2 receptor (Sig-2R) (Homo sapiens, UniProt Q5BJF2); assay: Human Sig-2R radioligand assay; type: binding; conditions: [3H]-DTG, transfected HEK-293 Sig-1R knockout membranes
T1 construct: expressed in transfected cells; host or cells: HEK-293 Sig-1R knockout (membranes)
T1 sequence (Q5BJF2 whole entry): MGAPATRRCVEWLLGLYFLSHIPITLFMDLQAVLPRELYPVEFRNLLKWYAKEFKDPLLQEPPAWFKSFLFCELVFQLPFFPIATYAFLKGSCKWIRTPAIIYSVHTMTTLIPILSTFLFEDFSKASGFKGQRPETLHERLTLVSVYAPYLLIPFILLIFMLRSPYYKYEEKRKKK
Protocol: The binding properties of the compounds to the human Sig-2R were similarly studied in transfected HEK-293 Sig-1R knockout membranes using [^3H]-1,3-di-o-tolylguanidine (DTG) (NET-986, PerkinElmer; Boston, USA) as the radioligand. The assay was carried out with 15 μg of membrane suspension, [^3H]-1,3-di-o-tolylguanidine (DTG) (10 nM, 100 μL), in either the absence or presence of either buffer or 10 μM haloperidol for total (TB) and nonspecific (NSB) binding, respectively, or the corresponding compound concentration. Binding buffer contained Tris-HCl (50 mM, pH 7.4). Plates were incubated at 25 °C for 120 min. After incubation, the reaction mix was transferred to MultiScreen HTS, FC plates (Merck Millipore) presoaked in 0.5% polyethyleneimine, and filtered. Following that, plates were washed with ice-cold Tris-HCl (10 mM, pH 8). Filters were dried and counted, and data were processed as above.

[3] = system: microglia and astrocytes in ventral horn of SOD1^G93A mice; assay: Glial reactivity in SOD1G93A mice (Iba1, GFAP); type: in vivo, SOD1^G93A male mice; conditions: 0.25 mg/kg i.p.; 16 weeks of age
Protocol: as §2
(§4) For glial cells immunofluorescence, other lumbar spinal cord sections were blocked with 10% normal donkey serum and incubated overnight with primary antibodies rabbit anti-Iba1 (1:500; 019–19741, Wako) and rat anti-GFAP (1:500; 13-0300, Invitrogen) to label microglia and astroglia, respectively. After several washes, sections were incubated with secondary antibodies Alexa Fluor 488-donkey anti-rat (1:500; A-21208, Invitrogen) or Alexa Fluor 594 donkey anti-rabbit (1:500; A21207, Invitrogen). Finally, sides were mounted with Fluoromount-G. To quantify glial cell reactivity, images of the ventral horn were acquired with an epifluorescence microscope (Nikon Eclipse Ni, Japan) using the same conditions for each analyzed marker. After defining a threshold for background correction, the integrated density of GFAP or Iba1 labeling was measured using ImageJ software.

[4] = Plasma levels, SOD1G93A model; type: in vivo, Transgenic SOD1^G93A male mouse; conditions: SOD1G93A transgenic, plasma, ip; SOD1G93A male mouse, 0.25 mg/kg i.p.; 30 min post-administration; data obtained in a separate study
Protocol: as §2
Plasma levels were determined in the two in vivo models evaluated to be able to associate the pharmacological activity with the levels present in plasma. In the rhizotomy model, the plasma levels were evaluated at Day 42 after surgery and at 15 min after compound administration (0.5 and 5 mg/kg i.p.). […] Plasma samples were assayed by ultraperformance liquid chromatography−triple quadrupole mass spectrometry (UPLC-MS/MS) after plasma protein precipitation. Results are expressed as mean ± standard deviation (n = 8).

[5] = system: microglia and astrocytes in ventral horn after rhizotomy; assay: Glial reactivity after L4-L5 rhizotomy (Iba1, GFAP immunolabeling); type: in vivo, female mice (B6SJL); conditions: 0.25 mg/kg bid i.p., 42 dpi
Protocol: as §1, §2, §4

[6] = Body weight in SOD1G93A mice; type: in vivo, SOD1^G93A male mice; conditions: 0.25 mg/kg i.p., 8 to 16 weeks of age
Protocol: as §2

[7] = system: NMJs of hindlimb muscle in SOD1^G93A mice; assay: Neuromuscular junction innervation in SOD1G93A mice; type: in vivo, SOD1^G93A male mice; conditions: 0.25 mg/kg i.p.; 16 weeks of age
Protocol: as §2
For neuromuscular junction (NMJ) labeling, 50 µm thick longitudinal sections of TA muscle were serially cut. Sections were blocked with 5% normal donkey serum and incubated with primary antibodies rabbit anti-synaptophysin (1:500; Ab32127, Abcam, Cambridge, UK) and chicken anti-neurofilament 200 (NF200, 1:1000; AB5539, Millipore, Burlington, MS, USA) 48 h at 4 °C. After washes, sections were incubated overnight with secondary antibody Alexa Fluor 594-donkey anti-rabbit and anti-chicken (1:200; A11042-A21207, Invitrogen, USA) and Alexa 488 conjugated α-bungarotoxin (1:500; B13422, Life Technologies, Carlsbad, CA USA). Confocal images were captured (LSM 700 Axio Observer, Carl Zeiss, Jena, Germany, 40xOil/z0.5), and the maximum projection images generated from 1.3 µm z projections. The proportion of innervated NMJs was calculated by classifying each endplate as occupied (when presynaptic terminals overlie the endplate) or vacant (no presynaptic label in contact with the endplate). At least 60 endplates were analyzed per muscle.

[8] = Plasma levels, spinal nerve injury (rhizotomy) model; type: in vivo, female mouse; conditions: plasma, ip; spinal nerve injury female mouse, 0.25 mg/kg i.p.; 30 min post-administration; data obtained in a separate study
Protocol: as §2
Plasma levels were determined in the two in vivo models evaluated to be able to associate the pharmacological activity with the levels present in plasma. […] In the SOD1^G93A model, the plasma levels were evaluated at 16 weeks of age (after 8 weeks of administration) and 15 min after compound administration (5 mg/kg i.p.). Plasma samples were assayed by ultraperformance liquid chromatography−triple quadrupole mass spectrometry (UPLC-MS/MS) after plasma protein precipitation. Results are expressed as mean ± standard deviation (n = 8).

SOD1^G93A mice = assay: Rotarod test in SOD1G93A mice; type: in vivo, SOD1^G93A male mice; conditions: 0.25 mg/kg i.p.; at 15 and 16 weeks
Protocol: as §2
A rotarod test was performed to evaluate motor coordination and strength. The time that each animal remained on the rotating rod at a speed of 14 rpm was measured for five trials per mouse, and the longest time until falling was recorded; 180 s was chosen as the cut-off time. The test was performed weekly from 8 to 16 weeks of age in SOD1^G93A and WT mice, and disease onset was determined as the first week when each mouse was unable to keep walking for 180 s on the rod.

[9] = system: spinal α-MNs in SOD1^G93A mice; assay: Spinal MN counts in SOD1G93A mice; type: in vivo, SOD1^G93A male mice; conditions: 0.25 mg/kg i.p.; 16 weeks of age
Protocol: as §2, §3

[10] = system: NSC34 SOD1^G93A-induced cell death; parameters: method as in PMID 24334165; conditions: more significant effect at 10 μM; cited from earlier work

| Compound | Effect on Sig-1R/BiP association (Sig-1R/BiP interaction) | Reversion of the effect of PRE-084 on Sig-1R/BiP association (Sig-1R/BiP interaction; compound 10 µM, PRE-084 10 µM) | Number of spinal MNs ± SEM, ipsilateral ventral horn [1] | IC50 [2] [µM] | Astrocyte activation (GFAP) [3] | concentration at 30 min [4] [ng/mL] | GFAP integrated density ± SEM (astroglial reactivity) [5] | Iba1 integrated density ± SEM (microglial reactivity) [5] | Body weight vs vehicle group [6] | Proportion of innervated endplates (NMJ) vs untreated [7] | concentration at 30 min [8] [ng/mL] | Rotarod performance vs vehicle (SOD1^G93A mice) | Number of surviving spinal α-MNs [9] [MNs per section] | NSC34 SOD1G93A-induced cell death [10] |
| --- | --- | --- | --- | --- | --- | --- | --- | --- | --- | --- | --- | --- | --- | --- |
| CCCN(CCC)CCc1ccc(OC)c(OCCc2ccccc2)c1 [NE100, reference compound] | antagonist effect | able to revert the effect of PRE-084 | – | – | – | – | – | – | – | – | – | – | – | – |
| O=C(OCCN1CCOCC1)C1(c2ccccc2)CCCCC1 [PRE-084, 2-(4-Morpholinethyl)1-Phenylcyclohexanecarboxylate, reference compound] | Agonist effect | – | 8.9 ± 0.4 | > 10 | significant decrease in astrocyte activation | 2.6 | 6 × 10^4 ± 0.9 × 10^4 | 15 × 10^4 ± 1.4 × 10^4 | did not cause differences in body weight | significantly increased the proportion of innervated endplates | 3.6 | significantly improved the functional outcome | 12.4 ± 0.9 | – |
| COc1ccc(CCN2CCN(CCCc3ccccc3)CC2)cc1OC [SA4503] | – | – | – | – | – | – | – | – | – | – | – | – | – | reduced NSC34 SOD1^G93A-induced cell death in a concentration-dependent manner |
